Laboratory results from US10537128B2, “Yeast, yeast extract containing gamma-Glu-Abu, and a method for producing the same” (AJINOMOTO CO., INC., priority 2010, dated 2020).

How the values were obtained:
[1] = test system: kokumi (initial taste, middle-after taste) scored by panelists; test: quantitative organoleptic evaluation test of kokumi-imparting activity; assay type: in vivo, human; conditions: for Intensity of kokumi, Initial taste: inosine monophosphate 0.05 g/dl, sodium chloride 0.5 g/dl; for Intensity of kokumi, Initial taste / Intensity of kokumi, Middle-after taste: score 0 control, 3 strong, 5 extremely strong, n=4
Description: Degree of kokumi-imparting activity of γ-Glu-Abu was investigated through a quantitative organoleptic evaluation test.
The quantitative organoleptic evaluation test was carried out as follows. Strength of the kokumi-imparting activity of a test compound was measured by using a mixture containing the test compound at 0.001 to 0.5 g/dl in distilled water containing sodium glutamate (0.05 g/dl), inosine monophosphate (0.05 g/dl), and sodium chloride (0.5 g/dl). A sample of the distilled water containing sodium glutamate, inosine monophosphate, and sodium chloride to which any test compound was not added was used as a no addition control. Samples that became acidic relative to the no addition control after dissolution of the test compound were used after pH of them was adjusted with NaOH to be within the range of ±0.2 from that of the no addition control.
The test was performed with organoleptic scores of 0 for the control, 3 for strong effect, and 5 for extremely strong effect, and n=4. Moreover, in order to make the criteria more definite, the scores of 0.001 g/dl of γ-Glu-Val-Gly for the initial taste and the middle-after taste were defined to be 3.0. The “middle-after taste” is a taste sensed in the periods for the middle taste and the aftertaste. Specifically, the initial taste, middle taste, and aftertaste are tastes sensed in the periods of 0 to 2 seconds, 2 to 5 seconds, and after 5 seconds, after eating, respectively, and the “middle-after taste” is a taste sensed in the period from 2 seconds to around 30 seconds. For the scoring, the linear scale method was used, in which determined scores were noted on a straight line on which positions of scores of from −5 to 5 were indicated. The panelists were consisted of persons who had experience of development of seasonings for foodstuffs for one year or longer in total, and could judge the difference of the titers of γ-Glu-Cys-Gly and γ-Glu-Val-Gly added to the tasty and salty solution to be about 10 times (this ability was periodically confirmed).
Kokumi-imparting activities of γ-Glu-Cys and other dipeptides were determined by the same quantitative organoleptic evaluation test as mentioned above.

[2] = storage stability; assay type: physicochemical; conditions: compared with γ-Glu-Cys
[3] = test system: CaSR; test: CaSR agonist activity; conditions: previously found by the inventors
[4] = 0.01 g/dl in distilled water with sodium glutamate 0.05 g/dl
[5] = 0.01 g/dl in the same tasty and salty solution
[6] = 0.2 g/dl in distilled water with sodium glutamate 0.05 g/dl
[7] = 0.2 g/dl in the same tasty and salty solution

CaSR, sequence (P41180 20-1078): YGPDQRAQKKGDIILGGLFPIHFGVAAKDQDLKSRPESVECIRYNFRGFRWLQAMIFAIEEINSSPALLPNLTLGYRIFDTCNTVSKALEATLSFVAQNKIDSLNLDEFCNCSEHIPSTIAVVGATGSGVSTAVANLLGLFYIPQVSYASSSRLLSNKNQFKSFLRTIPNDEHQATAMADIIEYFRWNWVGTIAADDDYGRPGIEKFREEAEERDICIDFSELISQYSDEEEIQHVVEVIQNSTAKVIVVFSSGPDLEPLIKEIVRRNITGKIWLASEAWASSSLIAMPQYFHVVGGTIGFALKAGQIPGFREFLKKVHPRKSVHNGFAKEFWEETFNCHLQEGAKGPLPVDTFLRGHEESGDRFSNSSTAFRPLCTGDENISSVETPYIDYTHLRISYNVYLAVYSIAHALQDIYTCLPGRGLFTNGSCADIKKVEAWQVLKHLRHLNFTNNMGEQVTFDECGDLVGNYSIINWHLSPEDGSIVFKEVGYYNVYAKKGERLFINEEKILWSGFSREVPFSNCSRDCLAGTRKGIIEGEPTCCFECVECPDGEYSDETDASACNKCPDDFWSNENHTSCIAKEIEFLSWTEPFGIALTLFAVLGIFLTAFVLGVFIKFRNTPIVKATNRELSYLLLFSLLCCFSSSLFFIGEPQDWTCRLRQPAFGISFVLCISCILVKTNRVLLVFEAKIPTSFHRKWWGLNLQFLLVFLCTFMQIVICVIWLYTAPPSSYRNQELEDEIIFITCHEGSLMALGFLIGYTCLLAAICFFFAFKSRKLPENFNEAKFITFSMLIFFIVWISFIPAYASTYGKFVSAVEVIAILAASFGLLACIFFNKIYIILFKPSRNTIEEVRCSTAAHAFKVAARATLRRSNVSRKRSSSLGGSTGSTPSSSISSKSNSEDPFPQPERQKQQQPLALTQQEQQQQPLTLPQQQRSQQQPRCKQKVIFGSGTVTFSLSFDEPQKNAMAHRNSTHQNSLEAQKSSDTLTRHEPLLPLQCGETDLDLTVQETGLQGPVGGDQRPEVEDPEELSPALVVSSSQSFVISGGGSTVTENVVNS

| Molecule | Intensity of kokumi, Initial taste [1, 4] | Intensity of kokumi, Middle-after taste [1, 5] | Intensity of kokumi, Initial taste [1, 6] | Intensity of kokumi, Middle-after taste [1, 7] | further results |
| --- | --- | --- | --- | --- | --- |
| L-γ-glutamyl-L-2-aminobutyric acid [γ-Glu-Abu] | – | – | – | – | Intensity of kokumi, Initial taste ([1]; 0.005 g/dl in distilled water with sodium glutamate 0.05 g/dl): 3.8; Intensity of kokumi, Middle-after taste ([1]; 0.005 g/dl in the same tasty and salty solution): 3.2; kokumi-imparting activity (in words) ([1]; addition concentration range 0.001 to 0.5 g/dl): showed kokumi-imparting activity in a broad range; kokumi titer (in words) ([1]; compared with γ-Glu-Ala): extremely high titer; storage stability (in words) [2]: superior storage stability; CaSR agonist activity (in words) [3]: high CaSR agonist activity |
| CC(C)[C@H](NC(=O)CC[C@H](N)C(=O)O)C(=O)O [γ-Glu-Val] | 3.1 | 2.4 | – | – | – |
| N[C@@H](CCC(=O)N[C@@H](CO)C(=O)O)C(=O)O [γ-Glu-Ser] | – | – | 3.6 | 3.0 | – |
| C[C@H](NC(=O)CC[C@H](N)C(=O)O)C(=O)O [γ-Glu-Ala] | – | – | 4.5 | 4.3 | – |
| N[C@@H](CCC(=O)N[C@@H](CS)C(=O)O)C(=O)O [γ-Glu-Cys, γ-glutamylcysteine] | 3.1 | 3.1 | – | – | – |
